Results from patent US10975037B2 (priority 2018, dated 2021).
Like-named read-outs stand apart in the source and are kept apart here. Marks after values point to notes of the source that are not given here.

What was measured:
[1] = target: human RORγt ligand binding domain (RORγt LBD) (Homo sapiens (Human), UniProt P51449); assay: RORγt ThermoFluor® assay (thermal shift binding)
Description: This approach is applicable to a wide variety of systems, and rigorous in theoretical interpretation through quantitation of equilibrium binding constants (KD).
The shift in the melting point described as a ΔTm is proportional to the concentration and affinity of the ligand.
RORγt ThermoFluor® Assay Construct
Reference wells contained RORγt without compounds, and the assay conditions were as follows: • 0.065 mg/mL RORγt • 60 μM 1,8-ANS • 100 mM Hepes, pH 7.0 • 10 mM NaCl • 2.5 mM GSH • 0.002% Tween-20
Project compounds were arranged in a pre-dosed mother plate (Greiner Bio-one) wherein compounds are serially diluted in 100% DMSO by 1:2 from a high concentration of 10 mM over 12 columns within a series (column 12 is a reference well containing DMSO, no compound). The compounds were robotically dispensed directly into assay plates (1×=46 nL) using a Hummingbird capillary liquid handling instrument (Digilab). Following compound dispense, protein and dye in buffer was added to achieve the final assay volume of 3 μL, followed by 1 μL of silicone oil.

full-length human RORγt = full-length human RORγt (Homo sapiens (Human), UniProt P51449); assay: RORγt (full-length human) reporter assay, conditions A or B, HEK293T cells; assay type: cell-based; details: for inhibition at 1 µM: 1 μM compound concentration (footnote ***); for inhibition at 0.67 µM: 0.67 μM compound concentration (footnote ****); for inhibition at 6 µM: read-out: RORγt (FL) Reporter Assay A or B, % inhibition @ 6 μM, 6 μM compound concentration
Procedure, shortened: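 After 16–20 h, dual firefly/Renilla luciferase luminescence was read. Firefly signal was normalized to DMSO and saturating reference compound, then to Renilla, and fitted for IC50; % inhibition is versus DMSO.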

[2] = HEK-293T, read-out: RORγt (FL) Reporter Assay A or B, % inhibition
[3] = RORγt (FL) Reporter Assay A or B, IC50, HEK293T cells
[4] = read-out: ThermoFluor® Assay, Kd
[5] = HEK-293T, 2 μM compound concentration, read-out: RORγt (FL) Reporter Assay A or B, % inhibition

Sequence of human RORγt ligand binding domain (RORγt LBD) (P51449 other isoform, or with tags, fused parts or gaps): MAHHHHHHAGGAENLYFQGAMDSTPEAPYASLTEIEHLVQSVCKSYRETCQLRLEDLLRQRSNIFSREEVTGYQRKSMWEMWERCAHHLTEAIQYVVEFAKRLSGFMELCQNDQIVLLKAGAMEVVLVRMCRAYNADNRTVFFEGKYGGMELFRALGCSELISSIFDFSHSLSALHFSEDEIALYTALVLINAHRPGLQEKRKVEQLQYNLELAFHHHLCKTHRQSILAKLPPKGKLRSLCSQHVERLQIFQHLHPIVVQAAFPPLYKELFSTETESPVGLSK
Sequence of full-length human RORγt (P51449 other isoform, or with tags, fused parts or gaps): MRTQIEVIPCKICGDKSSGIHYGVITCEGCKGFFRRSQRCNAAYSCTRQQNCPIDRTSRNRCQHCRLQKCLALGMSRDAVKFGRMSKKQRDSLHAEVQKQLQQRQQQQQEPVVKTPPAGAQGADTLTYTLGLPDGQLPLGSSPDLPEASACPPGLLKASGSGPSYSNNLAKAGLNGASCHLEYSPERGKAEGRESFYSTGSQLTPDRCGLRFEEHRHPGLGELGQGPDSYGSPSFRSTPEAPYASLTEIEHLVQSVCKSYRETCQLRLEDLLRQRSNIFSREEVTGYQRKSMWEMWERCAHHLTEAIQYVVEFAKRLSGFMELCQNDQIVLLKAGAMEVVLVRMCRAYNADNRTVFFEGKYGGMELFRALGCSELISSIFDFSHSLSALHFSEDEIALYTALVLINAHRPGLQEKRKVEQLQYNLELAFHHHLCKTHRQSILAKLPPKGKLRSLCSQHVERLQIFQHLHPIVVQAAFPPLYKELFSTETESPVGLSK

SMILES | IC50 (full-length human RORγt; [3]) [nM] | Kd [1, 4] [nM] | further results
CCn1nc(C(=O)NC[C@]2(O)CC[C@@H](S(C)(=O)=O)CC2)c(Cl)c1-c1ccc(C2(O)CCC(C(F)(F)F)CC2)cc1OC(F)F (single isomer, unassigned) [Example 112, 4-Chloro-5-(2-(difluoromethoxy)-4-((1s*,4s*)-1-hydroxy-4-(trifluoromethyl)cyclohexyl)phenyl)-1-ethyl-N-(((1s,4s)-1-hydroxy-4-(methylsulfonyl)cyclohexyl)methyl)-1H-pyrazole-3-carboxamide] | > 1000 |  | Kd ([1]; ThermoFluor® Assay, Kd): 3000 nM; inhibition at 1 µM (full-length human RORγt; [2]): 44%
CCn1nc(C(=O)NC[C@]2(O)CC[C@@H](S(C)(=O)=O)CC2)c(C)c1-c1ccc(CCCC(F)(F)F)cc1OC [Example 83, 1-Ethyl-N-(((1s,4s)-1-hydroxy-4-(methylsulfonyl)cyclohexyl)methyl)-5-(2-methoxy-4-(4,4,4-trifluorobutyl)phenyl)-4-methyl-1H-pyrazole-3-carboxamide] | 33 | 11 | inhibition at 0.67 µM (full-length human RORγt; [2]): 87%
CCn1nc(C(=O)NC[C@H]2CC[C@H](S(C)(=O)=O)CC2)c(Cl)c1-c1ccc(CC(C(F)(F)F)C(F)(F)F)cc1OC(F)F [Example 86, 4-Chloro-5-(2-(difluoromethoxy)-4-(3,3,3-trifluoro-2-(trifluoromethyl)propyl)phenyl)-1-ethyl-N-(((1r,4r)-4-(methylsulfonyl)cyclohexyl)methyl)-1H-pyrazole-3-carboxamide] | 5.6 | 0.17 | inhibition at 0.67 µM (full-length human RORγt; [2]): 103%
CCn1nc(C(=O)NC[C@H]2CC[C@H](S(C)(=O)=O)CC2)c(C(C)C)c1-c1ccc(N[C@H](C)C(F)(F)F)cc1OC [Example 131, 1-Ethyl-4-isopropyl-5-(2-methoxy-4-(((R)-1,1,1-trifluoropropan-2-yl)amino)phenyl)-N-(((1r,4R)-4-(methylsulfonyl)cyclohexyl)methyl)-1H-pyrazole-3-carboxamide] | 140 | 33 | inhibition at 2 µM (full-length human RORγt; [5]): 100%
CCn1nc(C(=O)NC[C@H]2CC[C@H](S(=O)(=O)NC=O)CC2)c(Cl)c1-c1ccc(CC(C)(C)C(F)(F)F)cc1OC(F)F [Example 67, 4-Chloro-5-(2-(difluoromethoxy)-4-(3,3,3-trifluoro-2,2-dimethylpropyl)phenyl)-1-ethyl-N-(((1r,4r)-4-(N-formylsulfamoyl)cyclohexyl)methyl)-1H-pyrazole-3-carboxamide] |  | 0.039 | RORγt (FL) Reporter Assay A or B, % inhibition (full-length human RORγt; 3 μM compound concentration (footnote *)): 118* %; IC50 (full-length human RORγt; HEK293T cells, read-out: RORγt (FL) Reporter Assay A or B, IC50): 56 nM
CCn1nc(C(=O)NC[C@@]2(O)CC[C@H](S(C)(=O)=O)C[C@@H]2O)c(Cl)c1-c1ccc(C[C@@H](C)C(F)(F)F)cc1OC(F)F (stereo in doubt) [Example 138, 4-Chloro-5-(2-(difluoromethoxy)-4-((R*)-3,3,3-trifluoro-2-methylpropyl)phenyl)-N-(((1S*,2S*,4S*)-1,2-dihydroxy-4-(methylsulfonyl)cyclohexyl)methyl)-1-ethyl-1H-pyrazole-3-carboxamide] | 12 |  | Kd ([1]; ThermoFluor® Assay, Kd): 3.7 nM; inhibition at 1 µM (full-length human RORγt; [2]): 101%
CCn1nc(C(=O)NC[C@]2(O)CC[C@@H](S(C)(=O)=O)CC2)c(Cl)c1-c1ccc(CC(C)C)cc1OC [Example 73, 4-Chloro-1-ethyl-N-(((1s,4s)-1-hydroxy-4-(methylsulfonyl)cyclohexyl)methyl)-5-(4-isobutyl-2-methoxyphenyl)-1H-pyrazole-3-carboxamide] | 11 | 0.63 | inhibition at 2 µM (full-length human RORγt; [5]): 61%
CCCn1nc(C(=O)NC[C@H]2CC[C@H](S(C)(=O)=O)CC2)c(Cl)c1-c1ccc(C[C@@H](C)C(F)(F)F)cc1OC (single isomer, unassigned) [Example 43, 4-Chloro-5-(2-methoxy-4-((R*)-3,3,3-trifluoro-2-methylpropyl)phenyl)-N-(((1r,4R)-4-(methylsulfonyl)cyclohexyl)methyl)-1-propyl-1H-pyrazole-3-carboxamide] | 7 |  | Kd ([1]; ThermoFluor® Assay, Kd): 0.21 nM; inhibition at 0.67 µM (full-length human RORγt; [2]): 99%

Continued by falling IC50 (full-length human RORγt; [3]), values first:

IC50 (full-length human RORγt; [3]) [nM] | Kd [1, 4] [nM] | SMILES | further results
220 |  | CCn1nc(C(=O)NC[C@]2(O)CC[C@@H](S(C)(=O)=O)CC2)c(Cl)c1-c1ccc([C@](C)(O)CC(F)(F)F)cc1OC(F)F (single isomer, unassigned) [Example 100, 4-Chloro-5-(2-(difluoromethoxy)-4-((R*)-4,4,4-trifluoro-2-hydroxybutan-2-yl)phenyl)-1-ethyl-N-(((1s,4S)-1-hydroxy-4-(methylsulfonyl)cyclohexyl)methyl)-1H-pyrazole-3-carboxamide] | Kd ([1]; ThermoFluor® Assay, Kd): 69 nM; inhibition at 3 µM (full-length human RORγt; HEK-293T, 3 μM compound concentration (footnote *), read-out: RORγt (FL) Reporter Assay A or B, % inhibition): 49%
56 | 6.6 | CCn1nc(C(=O)NC[C@H]2CC[C@H](S(C)(=O)=O)CC2)c(Cl)c1-c1ccc(OCC2(C)CC2)cc1OC [Example 215, 4-Chloro-1-ethyl-5-(2-methoxy-4-((1-methylcyclopropyl)methoxy)phenyl)-N-(((1r,4r)-4-(methylsulfonyl)cyclohexyl)methyl)-1H-pyrazole-3-carboxamide] | inhibition at 2 µM (full-length human RORγt; [5]): 80%
40 | 10 | CCn1nc(C(=O)NC[C@H]2CC[C@H](S(C)(=O)=O)CC2)c(Cl)c1-c1ccc(N[C@H](C)C(F)(F)F)cc1OC(C)C [Example 207, 4-Chloro-1-ethyl-5-(2-isopropoxy-4-(((R)-1,1-trifluoropropan-2-yl)amino)phenyl)-N-(((1r,4R)-4-(methylsulfonyl)cyclohexyl)methyl)-1H-pyrazole-3-carboxamide] | inhibition at 6 µM (full-length human RORγt; HEK-293T): 101%
29 | 5.4 | CCOc1cc(N[C@H](C)C(F)(F)F)ccc1-c1c(Cl)c(C(=O)NC[C@H]2CC[C@H](S(C)(=O)=O)CC2)nn1CC [Example 205, 4-Chloro-5-(2-ethoxy-4-(((R)-1,1,1-trifluoropropan-2-yl)amino)phenyl)-1-ethyl-N-(((1r,4R)-4-(methylsulfonyl)cyclohexyl)methyl)-1H-pyrazole-3-carboxamide] | inhibition at 2 µM (full-length human RORγt; [2]): 104%
27 | 2.1 | CCCn1nc(C(=O)NC[C@H]2CC[C@H](S(C)(=O)=O)CC2)c(Cl)c1-c1ccc(N[C@H](C)C(F)(F)F)cc1OC [Example 30, 4-Chloro-5-(2-methoxy-4-(((R)-1,1,1-trifluoropropan-2-yl)amino)phenyl)-N-(((1r,4R)-4-(methylsulfonyl)cyclohexyl)methyl)-1-propyl-1H-pyrazole-3-carboxamide] | inhibition at 2 µM (full-length human RORγt; [5]): 104%
12 | 0.59 | CCn1nc(C(=O)NC[C@H]2CC[C@H](S(C)(=O)=O)CC2)c(C)c1-c1ccc(CCCC(F)(F)F)cc1OC(F)F [Example 78, 5-(2-(Difluoromethoxy)-4-(4,4,4-trifluorobutyl)phenyl)-1-ethyl-4-methyl-N-(((1r,4r)-4-(methylsulfonyl)cyclohexyl)methyl)-1H-pyrazole-3-carboxamide] | inhibition at […] (full-length human RORγt; HEK-293T, 0.22 μM compound concentration (footnote *******), read-out: RORγt (FL) Reporter Assay A or B, % inhibition): 93%
9.6 | 0.51 | CCn1nc(C(=O)NC[C@]2(O)CC[C@@H](S(C)(=O)=O)CC2)c(Cl)c1-c1ccc(CC(C)(C)CC(F)(F)F)cc1OC(F)F [Example 90, 4-Chloro-5-(2-(difluoromethoxy)-4-(4,4,4-trifluoro-2,2-dimethylbutyl)phenyl)-1-ethyl-N-(((1s,4s)-1-hydroxy-4-(methylsulfonyl)cyclohexyl)methyl)-1H-pyrazole-3-carboxamide] | inhibition at […] (full-length human RORγt; HEK-293T, 0.33 μM compound concentration (footnote *****), read-out: RORγt (FL) Reporter Assay A or B, % inhibition): 91%
6 |  | CCOC(=O)[C@]1(CNC(=O)c2nn(CC)c(-c3ccc(N[C@H](C)C(F)(F)F)cc3OC)c2Cl)CC[C@H](S(C)(=O)=O)CC1 (relative stereo) [Example 94, Ethyl (1s*,4S*)-1-((4-chloro-1-ethyl-5-(2-methoxy-4-(((R)-1,1,1-trifluoropropan-2-yl)amino)phenyl)-1H-pyrazole-3-carboxamido)methyl)-4-(methylsulfonyl)cyclohexane-1-carboxylate] | Kd ([1]; ThermoFluor® Assay, Kd): 0.22 nM; inhibition at 6 µM (full-length human RORγt; HEK-293T): 101%
6 | 2.3 | CCn1nc(C(=O)NC[C@H]2CC[C@H](S(C)(=O)=O)CC2)c(Cl)c1-c1ccc(CCCC(F)(F)F)cc1OC [Example 80, 4-Chloro-1-ethyl-5-(2-methoxy-4-(4,4,4-trifluorobutyl)phenyl)-N-(((1r,4r)-4-(methylsulfonyl)cyclohexyl)methyl)-1H-pyrazole-3-carboxamide] | inhibition at 2 µM (full-length human RORγt; [5]): 89%
